Assays:
hTRPC5 [1] = molecular target: T1, hTRPC5 (Homo sapiens, UniProt Q9UL62); assay: TRPC5 agonist activity assay (FLIPR calcium fluorescence); format: cell-based; conditions: Table 2, agonist activity on TRPC5 channels
T1 construct: expressed in transfected cells; host or cells: HEK-293
T1 sequence (Q9UL62 1-973): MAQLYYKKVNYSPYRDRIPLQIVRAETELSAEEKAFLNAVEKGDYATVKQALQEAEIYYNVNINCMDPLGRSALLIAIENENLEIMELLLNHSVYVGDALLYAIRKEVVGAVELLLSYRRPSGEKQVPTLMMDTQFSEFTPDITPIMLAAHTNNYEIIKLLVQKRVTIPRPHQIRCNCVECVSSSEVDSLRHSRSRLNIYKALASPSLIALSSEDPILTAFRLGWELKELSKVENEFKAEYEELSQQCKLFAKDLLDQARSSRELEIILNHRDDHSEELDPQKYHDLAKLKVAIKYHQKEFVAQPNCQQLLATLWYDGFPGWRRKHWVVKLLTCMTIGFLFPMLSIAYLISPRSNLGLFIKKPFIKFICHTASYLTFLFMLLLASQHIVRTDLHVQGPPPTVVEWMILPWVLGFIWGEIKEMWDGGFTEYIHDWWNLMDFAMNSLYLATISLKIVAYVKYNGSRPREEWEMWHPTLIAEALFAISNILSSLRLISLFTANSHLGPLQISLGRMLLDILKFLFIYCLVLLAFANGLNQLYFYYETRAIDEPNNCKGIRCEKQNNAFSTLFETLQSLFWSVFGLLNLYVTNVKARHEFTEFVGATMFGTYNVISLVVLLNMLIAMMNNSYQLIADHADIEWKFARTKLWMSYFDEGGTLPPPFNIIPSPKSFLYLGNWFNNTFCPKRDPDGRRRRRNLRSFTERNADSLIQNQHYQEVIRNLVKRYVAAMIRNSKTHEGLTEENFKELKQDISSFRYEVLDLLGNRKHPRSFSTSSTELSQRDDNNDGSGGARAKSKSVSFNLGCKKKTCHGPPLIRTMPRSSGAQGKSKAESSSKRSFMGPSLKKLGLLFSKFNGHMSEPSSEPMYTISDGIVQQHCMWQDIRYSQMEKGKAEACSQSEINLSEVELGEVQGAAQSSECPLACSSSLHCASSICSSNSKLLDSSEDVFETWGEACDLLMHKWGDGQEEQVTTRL
Experimental: HEK-293 cells expressing hTRPC5 were seeded into PDL-coated black-walled 96-well plates, with 2×10^4 cells per well. After 8 hours of culture, the original culture medium was discarded, and 60 µL of 4 µM Fluo-4/AM dye was added immediately. The cells were incubated at 37 °C for 60 minutes, and then rinsed with calcium flow detection buffer 5 times. The cell plates were placed in FLIPR®TETRA (Molecular Devices, Sunnyvale, CA, USA) preheated at 30 °C, excited at a wavelength of 488 nm, and the fluorescence signals were continuously recorded in the range of 515-535 nm with a sampling frequency of 1 s. After recording for 360 seconds, solvent control and test compounds were added, and the fluorescence signal was collected for another 600 seconds. The fluorescence signal of the trajectory diagram is represented by F/F0, wherein F is the fluorescence signal at different time points, and F0 is the basic fluorescence signal, that is, the average value of the fluorescence signal at the first 10 time points. The dose-effect diagram first took F/F0 =1 as the baseline. The area under the curve of the change in fluorescence intensity after adding test compound was calculated. IC50 value was calculated using log[agonist] vs. response - Variable slope, taking into account the area under the curve and the log value of the concentration of the compound.

[2] = Liver microsome stability test, human; conditions: for Stability Evaluation / MF %: Human liver microsomes; for MF %: metabolic bioavailability
[3] = Liver microsome stability test, mouse; format: in vitro ADME; conditions: Mouse liver microsomes; for MF %: metabolic bioavailability
From the text: Calculation of Intrinsic Clearance: Clint = (1000 × slope)/(P); [formula]

[4] = Preliminary pharmacokinetic evaluation, plasma drug concentration after oral administration to mice; format: in vivo, ICR mice; conditions: male, ICR, mouse, oral 10 mg/kg, Mean ± SD, N = 3
Experimental: The test compound was prepared according to the following solvent: an aqueous solution of DMSO/Tween 80/0.5% (m/v) CMC-Na at a ratio of 2:2:96 (v/v/v), with a drug concentration of 1 mg/mL. Then, the test compound was gavaged to mice at a dosage of 10 mL/kg, with a dose of 10 mg/kg. Each compound was administered to 3 mice. At 1h and 4h after administration, about 50 µL of blood was collected from the orbital venous plexus of the mouse and placed in a centrifuge tube containing EDTA-K2 anticoagulant.

hTRPC5 [5] = molecular target: T1, hTRPC5; assay: TRPC5 inhibitory activity assay (FLIPR calcium fluorescence, Englerin A stimulation); format: cell-based; conditions: Table 1, TRPC5 channels, HEK-293 cells expressing hTRPC5; read-out: FLIPR IC50
Experimental: HEK-293 cells expressing hTRPC3, hTRPC4 or hTRPC5 were seeded into black-bottomed 96-well plates coated with poly-lysine (PDL), with 2×10^4 cells per well. After 8 h of culture, the original culture medium was discarded, and 60 µL of Fluo-4/AM dye with a final concentration of 4 µM was added. The plates were incubated at 37 °C for 60 min, and then rinsed five times with calcium flow detection buffer. […] Then, the agonist Englerin A (EA) (MedChemExpress, Shanghai, China, final concentration of 0.3nM) was added, and the fluorescence signal was collected for 600 seconds. The fluorescence signal of the trajectory diagram is represented by F/F0, wherein F is the fluorescence signal at different time points, and F0 is the basic fluorescence signal, that is, the average value of the fluorescence signal at the first 10 time points. […] The area under the curve of the change in fluorescence intensity after adding EA was calculated. IC50 value was calculated using log[Inhibitor] vs. response - Variable slope, taking into account the area under the curve and the log value of the concentration of the compound.

SMILES	EC50 (hTRPC5 [1]) [nM]	Stability Evaluation [2]	MF % [2] [%]	other results
Cn1c(=O)n(CCCO)c(=O)c2c1cc(C1CCC(c3ccccc3)CC1)n2Cc1ccc(Cl)cc1 (stereo not shown) [Example E5, 5-(4-chlorobenzyl)-3-(3-hydroxypropyl)-1-methyl-6-(4-phenylcyclohexyl)-1,5-dihydro-2H-pyrrolo[3,2-d]pyrimidine-2,4(3H)-dione]	141			
CC(C)OC1CCC(c2nc3c(c(=O)n(CCCO)c(=O)n3C)n2Cc2ccc(Cl)cc2)CC1 (stereo not shown) [Example E7, 7-(4-chlorobenzyl)-1-(3-hydroxypropyl)-8-(4-isopropoxycyclohexyl)-3-methyl-3,7-dihydro-1H-purine-2,6-dione]	36.1			
CC(C)n1c(=O)n(CCCO)c(=O)c2c1nc(C1CC1C1CC1)n2Cc1ccc(Cl)cc1 (stereo not shown) [Example E14, 8-([1,1'-bis(cyclopropan)]-2-yl)-7-(4-chlorobenzyl)-1-(3-hydroxypropyl)-3-isopropyl-3,7-dihydro-1H-purine-2,6-dione]	105			
Cn1c(=O)n(CCCO)c(=O)c2c1nc(C1(F)CC(c3ccccc3)C1)n2Cc1ccc(Cl)cc1 (stereo not shown) [Example E17, 7-(4-chlorobenzyl)-8-(1-fluoro-3-phenylcyclobutyl)-1-(3-hydroxypropyl)-3-methyl-3,7-dihydro-1H-purine-2,6-dione]	242			
CC(C)OC1CCC(F)(c2nc3c(c(=O)n(CCCO)c(=O)n3C)n2Cc2ccc(Cl)cc2)CC1 (stereo not shown) [Example E19, 7-(4-chlorobenzyl)-8-(1-fluoro-4-isopropoxycyclohexyl)-1-(3-hydroxypropyl)-3-methyl-3,7-dihydro-1H-purine-2,6-dione]	74.5			
COC1(c2nc3c(c(=O)n(CCCO)c(=O)n3C)n2Cc2ccc(Cl)cc2)CCC(C)(C)CC1 [Example E26, 7-(4-chlorobenzyl)-1-(3-hydroxypropyl)-8-(1-methoxy-4,4-dimethylcyclohexyl)-3-methyl-3,7-dihydro-1H-purine-2,6-dione]	100 to 200			
Cn1c(=O)n(CCCO)c(=O)c2c1nc(C1(F)CCC(F)(F)CC1)n2Cc1ccc(Cl)cc1 [Example E38, 7-(4-chlorobenzyl)-1-(3-hydroxypropyl)-3-methyl-8-(1,4,4-trifluorocyclohexyl)-3,7-dihydro-1H-purine-2,6-dione]		Medium (30%<MF%<70%, medium metabolic stability)	50.5	Stability Evaluation [3]: Medium (30%<MF%<70%, medium metabolic stability); MF % [3]: 42.1%
Cn1c(=O)n(CCCO)c(=O)c2c1nc(C1(F)CCC(F)(F)CC1)n2Cc1ccc(F)cc1 [Example E45, 7-(4-fluorobenzyl)-1-(3-hydroxypropyl)-3-methyl-8-(1,4,4-trifluorocyclohexyl)-3,7-dihydro-1H-purine-2,6-dione]		Medium (30%<MF%<70%, medium metabolic stability)	67.0	Stability Evaluation [3]: Medium (30%<MF%<70%, medium metabolic stability); MF % [3]: 59.1%
CC(C)n1c(=O)n(CCCO)c(=O)c2c1nc(C1(F)CCC(F)(F)CC1)n2Cc1ccc(F)cc1 [Example E46, 7-(4-fluorobenzyl)-1-(3-hydroxypropyl)-3-isopropyl-8-(1,4,4-trifluorocyclohexyl)-3,7-dihydro-1H-purine-2,6-dione]				concentration at 1 h [4]: 1170 ± 410 ng/mL; concentration at 4 h [4]: 576 ± 117 ng/mL
Cn1c(=O)n(CCCO)c(=O)c2c1nc(C1(F)CCC(F)(F)CC1)n2Cc1cc(F)cc(F)c1 [Example E61, 7-(3,5-difluorobenzyl)-1-(3-hydroxypropyl)-3-methyl-8-(1,4,4-trifluorocyclohexyl)-3,7-dihydro-1H-purine-2,6-dione]		Better (MF% >70%, better metabolic stability)	77.4	
Cn1c(=O)n(CCCO)c(=O)c2c1nc(C1(F)CCC(C(F)(F)F)CC1)n2Cc1ccccc1 (stereo not shown) [Example E63, 7-benzyl-8-(1-fluoro-4-(trifluoromethyl)cyclohexyl)-1-(3-hydroxypropyl)-3-methyl-3,7-dihydro-1H-purine-2,6-dione]		Better (MF% >70%, better metabolic stability)	74.4	half-life at 1 µM ([2]; human, liver microsomes, pH 7.4): 5.18 h; concentration at 1 h [4]: 2800 ± 860 ng/mL; concentration at 4 h [4]: 2060 ± 755 ng/mL; IC50 (hTRPC5 [5]): 0.86 nM
Cn1c(=O)n(CCCO)c(=O)c2c1nc(C1(F)CCC(F)(F)CC1)n2Cc1ccc(F)cc1F [Example E64, 7-(2,4-difluorobenzyl)-1-(3-hydroxypropyl)-3-methyl-8-(1,4,4-trifluorocyclohexyl)-3,7-dihydro-1H-purine-2,6-dione]		Better (MF% >70%, better metabolic stability)	72.5	Stability Evaluation [3]: Medium (30%<MF%<70%, medium metabolic stability); MF % [3]: 56.4%
Cn1c(=O)n(CCCO)c(=O)c2c1nc(C1(F)CCC(F)(F)CC1)n2Cc1ccc(Cl)cc1F [Example E70, 7-(4-chloro-2-fluorobenzyl)-1-(3-hydroxypropyl)-3-methyl-8-(1,4,4-trifluorocyclohexyl)-3,7-dihydro-1H-purine-2,6-dione]				concentration at 1 h [4]: 1260 ± 167 ng/mL; concentration at 4 h [4]: 1200 ± 110 ng/mL
Cn1c(=O)n(CCCO)c(=O)c2c1nc(C1(F)CCC(C(F)(F)F)CC1)n2Cc1ccc(Cl)cc1F (stereo not shown) [Example E71, 7-(4-chloro-2-fluorobenzyl)-8-(1-fluoro-4-(trifluoromethyl)cyclohexyl)-1-(3-hydroxypropyl)-3-methyl-3,7-dihydro-1H-purine-2,6-dione]				IC50 (hTRPC5 [5]): 0.27 nM
Cn1c(=O)n(CCCO)c(=O)c2c1nc(C1(F)CCC(F)(F)CC1)n2Cc1ccc(C#N)cc1 [Example E72, 4-((1-(3-hydroxypropyl)-3-methyl-2,6-dioxo-8-(1,4,4-trifluorocyclohexyl)-1,2,3,6-tetrahydro-7H-purin-7-yl)methyl)benzonitrile]		Medium (30%<MF%<70%, medium metabolic stability)	66.7	
Cn1c(=O)n(CCCO)c(=O)c2c1nc(C1(F)CCC(C(F)(F)F)CC1)n2Cc1ccc(C#N)cc1 (stereo not shown) [Example E73, 4-((8-(1-fluoro-4-(trifluoromethyl)cyclohexyl)-1-(3-hydroxypropyl)-3-methyl-2,6-dioxo-1,2,3,6-tetrahydro-7H-purin-7-yl)methyl)benzonitrile]				IC50 (hTRPC5 [5]): 1.88 nM

From patent publication EP4663640A1 (Shanghai Institute of Materia Medica, Chinese Academy of …, priority 2023, dated 2024)
